Where two headings read alike, the source gives them in different places.
Legend:
Type in all cases: in vivo
Puccinia recondita = assay: Greenhouse test, 4 day residual, Puccinia recondita on wheat (Examples 7, 9, 12, 15); conditions: 96 h, read-out: Observed Efficacy; for pest or weed control at 0.4 ppm: dose rate 0.4 ppm; for pest or weed control at 2 ppm: dose rate 2 ppm; for pest or weed control at 10 ppm: dose rate 10 ppm; for pest or weed control at 50 ppm: dose rate 50 ppm; for pest or weed control at 4 ppm: dose rate 4 ppm; for pest or weed control at 16 ppm: dose rate 16 ppm
Procedure: (§1) The trials are carried out under greenhouse (Examples 1 to 18) or field conditions (Example 19) in residual or curative applications. The fungicides are applied in single treatments, or in a combination comprising a benzophenone of formula I and a compound selected from the classes (A) through (E) as defined above. The compounds are applied in form of an aqueous spray mix obtained from concentrated formulation or the technical material.
(§2) 1. Seed is planted in 6 cm diameter plastic pots and maintained in the greenhouse.
(§3) 2. When the primary leaf is fully expanded in the case of cereals or several leaves are present in the case of dicots, formulated test compounds are sprayed with a three nozzle overhead fungicide sprayer to near run-off. Alternatively, a single nozzle overhead track sprayer is used for application of the compounds to cereals at a rate of 200 l/ha. Plants are then allowed to air-dry.
(§4) 3. Inoculation precedes treatment in the case of curative evaluations and follows treatment in case of residual evaluations.
(§5) For inoculation of non-powdery mildew diseases, an aqueous spore suspension of the pathogen is applied to the plant and the plants are kept 1-2 days in a moist infection chamber before being returned to the greenhouse where they are maintained by bottom watering.
(§6) 4. Disease on the foliage as percent leaf area with disease symptoms/signs is evaluated about 7 days after inoculation. In the case of wheat, the tips and bases of the leaves are excluded from the evaluation. [formula]
(§7) 1. Technical compounds are formulated in a solvent/surfactant system consisting of 5% acetone and 0.05% Tween 20 in deionized water. Compounds are dissolved in acetone prior to addition of the water; the Tween 20 can be added through either the acetone or the water. Dilutions are made using the solvent/surfactant system. Formulated compounds are prepared using deionized water.
(§8) Assessments of the diseases took place at the indicated day after the application of the compounds. Per cent infected leaf area infected was evaluated. The efficacy of the compounds/compounds mixtures to control the diseases was calculated by using the formula given above under item 4: […]
(§9) Synergy was calculated using the % disease control values of specific treatments for the two COLBY formula given hereinabove
Fungicidal Efficacy of the Mixture of BP-4+Other Fungicides (4 Day Residual) Against Puccinia recondita on Wheat
Fungicidal Efficacy of the Mixture of BP4+Other Fungicides (4 Day Residual) Against Puccinia recondita on Wheat
Fungicidal Efficacy of the Mixture of BP-4+Myclobutanil (4 Day Residual) Against Puccinia recondita on Wheat

[1] = test system: Blumeria graminis f. sp. tritici; assay: Greenhouse test, 2 day curative, Blumeria graminis f. sp. tritici on wheat (Example 17); conditions: Table XVII, single compound
Procedure: as §1, §2, §3, §4
(§10) For inoculation of powdery mildew disease, plants are set up on greenhouse benches with bottom watering mats and inoculated by dusting them with conidia from infected plants. Between inoculation and treatment for curative evaluations and between treatment and inoculation for residual evaluations, plants are maintained in the greenhouse with bottom watering.
as §6, §7, §8, §9
Fungicidal Efficacy of the Mixture of Different Benzophenones+Metconazole (2 Day Curative) Against Blumeria graminis f. sp. tritici on Wheat

Pyrenophora teres = assay: Greenhouse test, 4 day residual, Pyrenophora teres on barley (Examples 13, 16); conditions: 96 h, single product, read-out: Observed Efficacy; for pest or weed control at 0.4 ppm: dose rate 0.4 ppm; for pest or weed control at 2 ppm: dose rate 2 ppm; for pest or weed control at 10 ppm: dose rate 10 ppm; for pest or weed control at 50 ppm: dose rate 50 ppm
Procedure: as §1, §2, §3, §4, §5, §6, §7, §8, §9
Fungicidal Efficacy of the Mixture of BP4+Other Fungicides (4 Day Residual) Against Pyrenophora teres on barley
Fungicidal Efficacy of the Mixture of BP4+Other Fungicides (4 Day Residual) Against Pyrenophora teres on Barley

Leptosphaeria nodorum = assay: Greenhouse test, 4 day residual, Leptosphaeria nodorum on wheat (Examples 8, 10); conditions: Parastagonospora nodorum, 96 h, single compound, read-out: Observed Efficacy; for pest or weed control at 4 ppm: dose rate 4 ppm; for pest or weed control at 16 ppm: dose rate 16 ppm; for pest or weed control at 64 ppm: dose rate 64 ppm; for pest or weed control at 256 ppm: dose rate 256 ppm
Source text: as §1, with “The” for “The trials are carried out under greenhouse (Examples 1 to 18) or field conditions (Example 19) in residual or curative applications. The”
as §2, §3, §4, §5, §6, §7, §8, §9

Uncinula necator = assay: Greenhouse test, 1 day residual, Uncinula necator on vines (Example 18); conditions: Table XVIII, single compound
Procedure: as §1, §2, §3, §4, §10, §6, §7, §8, §9
Fungicidal Efficacy of the Mixture of BP-4+AP-4 (1 Day Residual) Against Uncinula necator on Vines

Erysiphe cichoracearum = assay: Greenhouse test, 4 day residual, Erysiphe cichoracearum on cucumbers (Examples 6, 11, 14); conditions: Golovinomyces cichoracearum, 96 h, read-out: Observed Efficacy; for pest or weed control at 0.4 ppm: dose rate 0.4 ppm; for pest or weed control at 2 ppm: dose rate 2 ppm; for pest or weed control at 10 ppm: dose rate 10 ppm; for pest or weed control at 50 ppm: dose rate 50 ppm
Procedure: as §1, §2, §3, §4, §10, §6, §7, §8, §9
Fungicidal Efficacy of the Mixture of BP-4+Other Fungicides (4 Day Residual) Against Erysiphe cichoracearum on Cucumbers
Fungicidal Efficacy of the Mixture of BP4+Other Fungicides (4 Day Residual) Against Erysiphe cichoracearum on Cucumbers

[2] = Example 15, Table XV, single product, wheat
[3] = Example 14, Table XIV, single product, cucumbers
[4] = Table XI, single compound or product

CC(C1CC1)C(O)(Cn1cncn1)c1ccc(Cl)cc1 (stereo not drawn) [Cyproconazole]
pest or weed control at 0.4 ppm (Puccinia recondita; [2]): 58%

COc1cc(C)c(C(=O)c2c(C)ccc(Br)c2OC)c(OC)c1OC [BP-4, 3-bromo-2′,6-dimethyl-2,4′,5′,6′-tetramethoxybenzophenone]
Observed Efficacy ([1]; dose rate 0.67 ppm): 9%
Observed Efficacy ([1]; dose rate 2 ppm): 27%
Observed Efficacy ([1]; dose rate 6 ppm): 42%
Observed Efficacy ([1]; dose rate 18 ppm): 78%
Observed Efficacy ([1]; dose rate 54 ppm): 92%
pest or weed control at 0.4 ppm (Pyrenophora teres; Example 13, Table XIII): 0%
pest or weed control at 2 ppm (Pyrenophora teres; Example 13, Table XIII): 0%
pest or weed control at 10 ppm (Pyrenophora teres; Example 13, Table XIII): 34%
pest or weed control at 50 ppm (Pyrenophora teres; Example 13, Table XIII): 58%
pest or weed control at 0.4 ppm (Pyrenophora teres; Example 16, Table XVI): 0%
pest or weed control at 2 ppm (Pyrenophora teres; Example 16, Table XVI): 0%
pest or weed control at 10 ppm (Pyrenophora teres; Example 16, Table XVI): 0%
pest or weed control at 50 ppm (Pyrenophora teres; Example 16, Table XVI): 11%
pest or weed control at 4 ppm (Leptosphaeria nodorum; Table VIII): 0%
pest or weed control at 16 ppm (Leptosphaeria nodorum; Table VIII): 0%
pest or weed control at 64 ppm (Leptosphaeria nodorum; Table VIII): 14%
pest or weed control at 256 ppm (Leptosphaeria nodorum; Table VIII): 34%
pest or weed control at 4 ppm (Leptosphaeria nodorum; Table X): 0%
pest or weed control at 16 ppm (Leptosphaeria nodorum; Table X): 10%
pest or weed control at 64 ppm (Leptosphaeria nodorum; Table X): 18%
pest or weed control at 256 ppm (Leptosphaeria nodorum; Table X): 44%
pest or weed control at 0.4 ppm (Puccinia recondita; [2]): 0%
pest or weed control at 2 ppm (Puccinia recondita; [2]): 0%
pest or weed control at 10 ppm (Puccinia recondita; [2]): 6%
pest or weed control at 50 ppm (Puccinia recondita; [2]): 12%
pest or weed control at 4 ppm (Puccinia recondita; Table IX, single compound): 6%
pest or weed control at 16 ppm (Puccinia recondita; Table IX, single compound): 4%
pest or weed control at 64 ppm (Puccinia recondita; Table IX, single compound, dose rate 64 ppm): 16%
pest or weed control at 256 ppm (Puccinia recondita; Table IX, single compound, dose rate 256 ppm): 38%
pest or weed control at 4 ppm (Puccinia recondita; Table VII, single compound): 0%
pest or weed control at 16 ppm (Puccinia recondita; Table VII, single compound): 0%
pest or weed control at 0.4 ppm (Puccinia recondita; Table XII, single compound): 2%
pest or weed control at 2 ppm (Puccinia recondita; Table XII, single compound): 7%
pest or weed control at 10 ppm (Puccinia recondita; Table XII, single compound): 10%
pest or weed control at 50 ppm (Puccinia recondita; Table XII, single compound): 31%
Observed Efficacy (Uncinula necator; dose rate 0.25 ppm): 0%
Observed Efficacy (Uncinula necator; dose rate 0.5 ppm): 21%
Observed Efficacy (Uncinula necator; dose rate 1 ppm): 28%
Observed Efficacy (Uncinula necator; dose rate 2 ppm): 9%
Observed Efficacy (Uncinula necator; dose rate 4 ppm): 43%
Observed Efficacy (Uncinula necator; dose rate 8 ppm): 42%
pest or weed control at 0.4 ppm (Erysiphe cichoracearum; [3]): 0%
pest or weed control at 2 ppm (Erysiphe cichoracearum; [3]): 0%
pest or weed control at 10 ppm (Erysiphe cichoracearum; [3]): 13%
pest or weed control at 50 ppm (Erysiphe cichoracearum; [3]): 97%
pest or weed control at 1 ppm (Erysiphe cichoracearum; Table VI, single compound, dose rate 1 ppm): 1%
pest or weed control at 4 ppm (Erysiphe cichoracearum; Table VI, single compound, dose rate 4 ppm): 6%
pest or weed control at 16 ppm (Erysiphe cichoracearum; Table VI, single compound, dose rate 16 ppm): 51%
pest or weed control at 64 ppm (Erysiphe cichoracearum; Table VI, single compound, dose rate 64 ppm): 100%
pest or weed control at 0.4 ppm (Erysiphe cichoracearum; [4]): 0%
pest or weed control at 2 ppm (Erysiphe cichoracearum; [4]): 2%
pest or weed control at 10 ppm (Erysiphe cichoracearum; [4]): 55%
pest or weed control at 50 ppm (Erysiphe cichoracearum; [4]): 96%

Reference: patent US6521628B1, “Fungicidal mixtures” (BASF Aktiengesellschaft, priority 1999, dated 2003)
